Format in all cases: cell-based, human
Experiment [1] has as its system DNA synthesis in HL-60 cells. In words: Inhibition of [3H-methyl]dThd incorporation into DNA of HL-60 cells. The settings on record: for inhibition at 30 µg/mL: Homo sapiens, HL-60, at 0.03 mg/mL, read-out: % Inhibition of Precursor Incorporation, DNA; for inhibition of DNA synthesis, in words: HL-60, 0.03 mg/ml; for % Inhibition of Precursor Incorporation, DNA: at 0.03 mg/mL. The method, then: (§1) For the precursor incorporation studies, each compound (in 0.3% dimethylsulfoxide) was preincubated with HL-60 cells (a human promyelocytic leukemic cell line) 2.2×10^6 /ml, for 15 min prior to the addition of the labeled precursor (obtained from ICN Radiochemicals, Irvine, Calif.) and then incubated for 30 min. The precursors used for incorporation into DNA, RNA and protein were [^3 H-methyl]dThd (1 μCi, 0.15 nmole/ml), [5-^3 H]Cyd (5 μCi, 0.23 nmol/ml), and [2,3,4,5-^3 H]L-Leu (0.5 μCi, 0.004 nmol/ml), respectively. Incorporation of radioactivity in the absence of a plant compound and in the presence of dimethylsulfoxide was used as a control.
Human promyelocytic cells (HL-60) were incubated with [^3 H-methyl]dTHDin the presence and absence of a plant alkaloid.

Experiment [2] concerns RNA synthesis in HL-60 cells. In words: Inhibition of [5-3H]Cyd incorporation into RNA of HL-60 cells. The settings on record: for inhibition at 30 µg/mL: Homo sapiens, HL-60, 0.5 h. The method, then: as §1, with “control. The control values for incorporation into DNA, RNA and protein were 8,500, 5,600 and 1,700 cpm/10^6 cells, respectively. The incubation conditions and the procedures for isolating DNA, RNA and protein fractions have been previously described (Chou, T. -C., et al., Cancer Res., 43:3074-3079 (1983)) .” for “control.”
(§2) HL-60 cells were incubated with [5-^3 H]Cyd or [2,3,4,5-^3 H]L-Leu in the presence and absence of alkaloids (0.03 mg/ml) in order to find the effects of the alkaloid on the incorporation of labeled precursors into RNA or protein. […] Over 90% of RNA and protein biosynthesis were inhibited by compounds 11, 16, 17, 22, 28, 29and 30 (Table 1). […] In most cases, the amount required to inhibit precursor incorporation into DNA was less than that to inhibit precursor incorporation into RNA or protein (i.e. DNA synthesis is inhibited most potently).

The subject of experiment [3] is protein synthesis in HL-60 cells. As to the kind of experiment: Inhibition of [2,3,4,5-3H]L-Leu incorporation into protein of HL-60 cells. As to conditions: for inhibition at 30 µg/mL: Homo sapiens; for % Inhibition of Precursor Incorporation, Protein: at 0.03 mg/mL. Here is the method: as §1, with “control. The control values for incorporation into DNA, RNA and protein were 8,500, 5,600 and 1,700 cpm/10^6 cells, respectively. The incubation conditions and the procedures for isolating DNA, RNA and protein fractions have been previously described (Chou, T. -C., et al., Cancer Res., 43:3074-3079 (1983)) .” for “control.”
as §2

Experiment [4] has as its system HL-60 cells. In words: HL-60 cell growth inhibition, 72 h. The settings on record: HL-60, 72 h; for IC50: Homo sapiens; for IC50 / pIC50: read-out: Cell Growth Inhibition, IC50. Here is the method: For growth inhibition studies, HL-60 cells (1.5×10^5 /ml) were grown in RPMI 1640 media (GIBCO, Grand Island, N.Y.) at 37° C. in humidified 5% CO2 for 72 h. Viable cells were determined using trypan blue exclusion and counted in a hemocytometer. The fractional inhibition for each compound concentration (0.0025-0.05 mg/ml in 0.1% dimethylsulfoxide) was analyzed with the median-effect plot using a computer program (Chou, T. -C and P. Talalay, Adv. Enzyme Regul., 22:27-55 (1984); Chou, J. and T. -C. thou, Dose-Effect analysis with microcomputers: Quantitation of ED50, LD50, synergism, antagonism, low-dose risk, receptor ligand binding and enzyme kinetics. A computer software disk for Apple II series or IBM-PC and manual. Elsevier Science Publishers, Elsevier-BioSoft, Cambridge, United Kingdom (1986)). The median-effect concentration (IC50) was determined automatically for three to five dose-effect levels. Cell growth in the absence of plant compound and in the presence of dimethylsulfoxide was used as a control. Dimethylsulfoxide alone inhibited cell growth 3.9%±1.5% during the 72 h incubation period. Those data with negative values represent activations.

Where [5] appears, read: at 0.03 mg/mL, read-out: % Inhibition of Precursor Incorporation, RNA.
[6] abbreviates: HL-60, at 0.03 mg/mL, read-out: % Inhibition of Precursor Incorporation, Protein.
Setting [7] is: read-out: % Inhibition of Precursor Incorporation, RNA, at 0.03 mg/mL.
Setting [8] is: HL-60, read-out: % Inhibition of Precursor Incorporation, Protein, at 0.03 mg/mL.

pIC50: −log10 of the molar value. Where “and” joins values, the source holds several entries; their conditions need not be identical. Identical values can stand only once. Like-named read-outs stand apart in the source and are kept apart here.

The IC50 is the midpoint of a concentration-inhibition curve. For the compound `CC(=O)Oc1cc(OC(C)=O)c2c(=O)c3ccccc3n(C)c2c1` [Compound 6], the inhibition at 30 µg/mL in experiment [1] is 23%; in experiment [2] (setting [5]), 2.7%; in experiment [3] (setting [6]), -12.8%. In addition, the IC50 in experiment [4] was > 40 µg/mL and > 123 µM.

Turning to `CC(=O)Oc1cc(OC(C)=O)c2c(=O)c3ccccc3[nH]c2c1` [Compound 5, 1,3-O,O-Diacetyl-acridone], the “inhibition of DNA synthesis, in words” value in experiment [1] is “no significant activity”. For the same compound, the figures for the inhibition at 30 µg/mL in experiment [1], in experiment [2] (setting [5]) and in experiment [3] (setting [6]) were 39.7%, 24.9% and 26.9%, respectively. For the same compound, the 50% inhibitory concentration (IC50) in experiment [4] was > 40 µg/mL and > 129 µM.

As to `CC(C)=CCc1c(O)cc(O)c2c(=O)c3ccccc3n(C)c12` [Compound 11, Glycocitrine-II], the “inhibition of DNA synthesis, in words” value in experiment [1] is on record as “potent inhibitor”. In addition, the inhibition at 30 µg/mL turned out to be 99.5% in experiment [1], 97.1% in experiment [2] (setting [5]) and 95.3% in experiment [3] (setting [6]). For the same compound, the IC50 in experiment [4] was 8.2 µg/mL and 26.5 µM.

Take `CC(=O)Oc1cccc2c(=O)c3c(O)c(CC=C(C)C)c4c(c3n(C)c12)C=CC(C)(C)O4` [Compound 47, 11-O-Acetyl-N-methyl severifoline]: the values for the inhibition at 30 µg/mL in experiment [1], in experiment [2] (setting [5]) and in experiment [3] (setting [6]) were 58.4%, 16.2% and 36.2%, respectively. The half-maximal inhibitory concentration (IC50) in experiment [4] is 8.8 µg/mL and 20.3 µM.

As to `COc1c(O)ccc2c(=O)c3c(O)cc(O)c(CC=C(C)C)c3n(C)c12` [Compound 27, Prenylcitpressine], the inhibition at 30 µg/mL is 52.4% in experiment [1], 21.1% in experiment [2] (setting [5]) and -15.7% in experiment [3] (setting [6]). Besides, the 50% inhibitory concentration (IC50) in experiment [4] is 36 µg/mL and 94.5 µM.

As usually defined, the pIC50 is the IC50 on a negative log10 scale, so that one unit is a factor of ten. Regarding `COc1cccc2c(=O)c3c(O)cc4c(c3n(C)c12)C=CC(C)(C)O4` [Compound 39, 11-methoxy-noracronycine], in experiment [1], the “% Inhibition of Precursor Incorporation, DNA” value (“% Inhibition … DNA” below) is 98.9%. Moreover, the “% Inhibition of Precursor Incorporation, RNA” value (shortened to “% Inhibition … RNA”) in experiment [2] (at 0.03 mg/mL) is listed as 39.9%. Besides, the “% Inhibition of Precursor Incorporation, Protein” value (“% Inhibition … Protein” below) in experiment [3] was 36.2%. Moreover, in experiment [4], the “Cell Growth Inhibition, IC50” value is 5.8 µg/mL and the negative-log IC50 (pIC50) was 4.76.

As to `COc1cc(OC(C)=O)cc2c1c(=O)c1ccccc1n2C` [Compound 9, 3-O-Acetyl-1-methoxy-R-methyl acridone], the figures for the inhibition at 30 µg/mL in experiment [1], in experiment [2] (setting [5]) and in experiment [3] (setting [6]) were 71.1%, 61.6% and 30%, respectively. The IC50 in experiment [4] was 30.5 µg/mL and 103 µM.

Take “Methoxymethyl-pyranofoline [Compound 49]”: in experiment [1], the “inhibition of DNA synthesis, in words” value is listed as “inhibited DNA synthesis significantly” and the “% Inhibition … DNA” value is given as 85.3%. Besides, the “% Inhibition … RNA” value in experiment [2] (at 0.03 mg/mL) came to 70.1%. Besides, the “% Inhibition … Protein” value in experiment [3] was 87.3%. In experiment [4], the “Cell Growth Inhibition, IC50” value is 18.7 µg/mL and the negative-log IC50 (pIC50) was 4.33.

On to `O=c1c2ccccc2[nH]c2cc(O)cc(O)c12` [Compound 4, 1,3-Dihydroxy-acridone], for which the “inhibition of DNA synthesis, in words” value in experiment [1] is listed as “no significant activity”. In addition, the inhibition at 30 µg/mL in experiment [1] is 76.7%; in experiment [2] (setting [5]), 50.6%; in experiment [3] (setting [6]), 62.8%. The IC50 in experiment [4] is 20.6 µg/mL and 90.7 µM.

For the compound `CC(C)=CCc1c2c(c3c(c1O)c(=O)c1cccc(O)c1n3C)C=CC(C)(C)O2` [Compound 46, 11-Hydroxy-N-methyl severifoline], the “inhibition of DNA synthesis, in words” value in experiment [1] was “significant activity”. Besides, the inhibition at 30 µg/mL in experiment [1] was 97.9%; in experiment [2] (setting [7]), 16.7%; in experiment [3] (setting [8]), 4.22%. Moreover, in experiment [4], the IC50 is 5.9 µg/mL and 15.1 µM.

For the compound `COc1cc(OC)c2c(=O)c3ccccc3n(C)c2c1` [Compound 10, 1,3-Dimethoxy-N-methyl acridone], in experiment [1], the “inhibition of DNA synthesis, in words” value is reported as “excellent inhibitory effect”. The inhibition at 30 µg/mL in experiment [1] is more than 90%; in experiment [2] (setting [5]), 65.8%; in experiment [3] (setting [6]), 64.4%. The 50% inhibitory concentration (IC50) in experiment [4] is 9.2 µg/mL and 34.2 µM.

Regarding `COc1cc(O)c2c(=O)c3cccc(O)c3n(C)c2c1CC=C(C)C` [Compound 13, Glycocitrine-I], the values for the inhibition at 30 µg/mL in experiment [1], in experiment [2] (setting [5]) and in experiment [3] (setting [6]) were 97.5%, 43.9% and 41.1%, respectively. Also, in experiment [4], the “cell growth inhibition, in words” value is listed as “significant activity against leukemic cells in vitro”. Further, in experiment [4], the IC50 was 1.4 µg/mL and 4.1 µM.

With `CC(C)=CCc1c2c(c3[nH]c4c(O)cccc4c(=O)c3c1O)C=CC(C)(C)O2` [Compound 40, Atalaphyllinine], in experiment [1], the “inhibition of DNA synthesis, in words” value is on record as “greater activity” and the inhibition at 30 µg/mL was 98.8%. The inhibition at 30 µg/mL in experiment [2] (setting [7]) turned out to be 24.4%. In experiment [3] (setting [8]), the inhibition at 30 µg/mL came out at 41.8%. Also, in experiment [4], the “cell growth inhibition, in words” value was “comparable activity”; the IC50 is 1.2 µg/mL and 3.2 µM.

As to `COc1cc(OC)c2c(=O)c3ccc(OC)c(OC)c3n(C)c2c1` [Compound 24, 1-O-Methyl-citpressine-II], the inhibition at 30 µg/mL was found to be 93.1% in experiment [1], 67.3% in experiment [2] (setting [5]) and 75.6% in experiment [3] (setting [6]). The “% Inhibition … DNA” value in experiment [1] came out at 93%. Also, the IC50 in experiment [4] is 22 µg/mL and 66.8 µM.

For the compound `COc1cc(O)c2c(=O)c3ccccc3n(C)c2c1CC=C(C)C` [Compound 12, 3-O-methyl-glycocitrine-II], the “inhibition of DNA synthesis, in words” value in experiment [1] is listed as “only moderate inhibitory activity”. Besides, the inhibition at 30 µg/mL amounted to 61.8% in experiment [1], 53.8% in experiment [2] (setting [5]) and 50.3% in experiment [3] (setting [6]). In addition, the half-inhibitory concentration (IC50) in experiment [4] is > 40 µg/mL and > 124 µM.

Regarding Furofoline-II [Compound 51], in experiment [1], the “inhibition of DNA synthesis, in words” value was “not active” and the “% Inhibition … DNA” value is 13.1%. Further, the “% Inhibition … RNA” value in experiment [2] (at 0.03 mg/mL) was -46.3%. The “% Inhibition … Protein” value in experiment [3] came out at 19.5%. Further, in experiment [4], the “Cell Growth Inhibition, IC50” value was more than 40 µg/mL and the negative logarithm of the IC50 (pIC50) is less than 3.91.

On to `COc1cc(OC)c2c(=O)c3cccc(OC)c3n(C)c2c1OC` [Compound 18, 1,3,4,5-Tetra-methoxy-N-methyl acridone], for which the inhibition at 30 µg/mL was 91.5% in experiment [1], 57% in experiment [2] (setting [5]) and 71.8% in experiment [3] (setting [6]). Further, the IC50 in experiment [4] was 13.3 µg/mL and 40.4 µM.

Consider `Cn1c2c(O)cccc2c(=O)c2c(O)cc3c(c21)CCC(C)(C)O3` [Compound 38, 1,2-Dihydro-11-hydroxy-nor acronycine], for which, in experiment [1], the “inhibition of DNA synthesis, in words” value is on record as “same potency as their parent compounds” and the inhibition at 30 µg/mL was found to be 98.8%. Moreover, the inhibition at 30 µg/mL in experiment [2] (setting [5]) is 76.6%. Further, in experiment [3] (setting [6]), the inhibition at 30 µg/mL was 92.2%. Moreover, in experiment [4], the “cell growth inhibition, in words” value is recorded as “only half as potent as their parent compounds”; the half-inhibitory concentration (IC50) is 5.5 µg/mL and 16.9 µM.
